Laboratory results published in patent publication US20070196883A1, “ENZYME” (UNIVERSITY OF DUNDEE, priority 1999, published 2007).
Entries after “also recorded” stand apart in the source; their conditions may differ.

Columns and labels:
GST-PIF/PDK1 complex = target: T1, GST-PIF/PDK1 complex (Homo sapiens, UniProt O15530); test: Phosphorylation of GST-PKBα at Ser473 by GST-PIF/PDK1 (P-473 immunoblot); assay type: biochemical; conditions: lipid 10 μM in PtdCho/PtdSer vesicles, MgATP, 60 min 30° C.
T1 construct: endogenous in cells; host or cells: 293 cells transfected with pEBG2T GST-PIF; endogenous PDK1 co-purified on glutathione-Sepharose
T1 sequence (O15530 whole entry): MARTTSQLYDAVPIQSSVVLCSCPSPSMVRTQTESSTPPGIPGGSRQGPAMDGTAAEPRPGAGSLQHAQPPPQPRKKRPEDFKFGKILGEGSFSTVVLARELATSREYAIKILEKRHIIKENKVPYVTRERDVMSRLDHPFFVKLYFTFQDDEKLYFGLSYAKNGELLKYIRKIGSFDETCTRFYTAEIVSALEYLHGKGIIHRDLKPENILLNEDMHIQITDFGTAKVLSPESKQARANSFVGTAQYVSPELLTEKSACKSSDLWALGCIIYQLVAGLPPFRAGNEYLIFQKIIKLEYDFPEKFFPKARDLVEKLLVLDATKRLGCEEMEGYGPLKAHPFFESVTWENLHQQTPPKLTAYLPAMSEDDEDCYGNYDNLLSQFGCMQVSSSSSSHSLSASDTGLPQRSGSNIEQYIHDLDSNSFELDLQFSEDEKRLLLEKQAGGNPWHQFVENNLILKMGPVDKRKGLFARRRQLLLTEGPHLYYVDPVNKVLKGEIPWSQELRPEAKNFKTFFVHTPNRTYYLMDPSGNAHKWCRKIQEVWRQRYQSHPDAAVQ
T1 sequence (Q16513 908-984 partner): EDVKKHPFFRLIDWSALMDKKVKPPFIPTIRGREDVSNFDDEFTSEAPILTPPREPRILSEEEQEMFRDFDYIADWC
Description: FIG. 5. The ability of GST-PIF to phosphorylate PKBα at Ser473 is dependent upon the presence of PDK1. GST-PIF purified from 293 cells, FIG. 2C (20 μg in 50 μl) was incubated with Protein G-Sepharose (10 μl) conjugated with either no antibody (control), MSK1 antibody A [40] (5 μg, non specific antibody), a PDK1 antibody raised against the whole protein (5 μg) or a PDK1 peptide antibody raised against the 16 C-terminal amino acid residues of PDK1 (5 μg, peptide antibody) in the presence or absence of the PDK1 C-terminal peptide immunogen (0.2 mM) to which this antibody was raised. After incubation on a shaking platform for 60 min at 4° C., the suspension was centrifuged and GST-PIF in the supernatant (2.0 μg) was incubated with GST-PKBα and MgATP for 60 min at 30° C. in the presence or absence of phospholipid vesicles containing 100 μM PtdCho, 100 μM PtdSer, and 10 μM sn-1-stearoyl-2-arachidonoyl-D-PtdIns(3,4,5)P3 (1,2-SAD-PtdIns(3,4,5)P3), or sn-1,2 di-palmitoyl-D-PtdIns(3,4,5)P3 (C16-PtdIns(3,4,5)P3) or sn-1,2 di-palmitoyl-D-PtdIns(3,4)P2 (C16-PtdIns(3,4)P2). The reactions were terminated by making the solutions 1% in SDS, and the samples were subjected to SDS/polyacylamide gel electrophoresis and immunoblotted using the P-Ser473 antibody. Identical results were obtained in 2 separate experiments (B) The wild type and mutant GST-PIF proteins (2.0 μg) used in FIG. 3 were incubated with GST-PKBα and MgATP for 60 min at 30° C. in the presence or absence of lipid vesicles containing 10 μM sn-1-stearoyl-2-arachidonoyl-D-PtdIns(3,4,5)P3 and the degree of phosphorylation of PKBα at Ser473 was established by immunoblotting. Similar results were obtained in 4 separate experiments using 2 different preparations of the wild type and mutant GST-PIF proteins.
FIG. 7. Specificity of phosphoinositide-dependent PIF/PDK1-induced phosphorylation of Thr308 and Ser473 of PKBα. GST-PKBα was incubated for 60 min at 30° C. with GST-PIF purified from 293 cells (which is associated with endogenous PDK1 see FIG. 3) (1.0 μg), MgATP and phospholipid vesicles containing 100 μM PtdCho, 100 μM PtdSer, and various PtdIns lipids (numbered 1-11, see below) all at a final concentration of 10 μM in the assay. In panel A the reactions were terminated by the addition of Triton X100 and the increase in specific activity of GST-S473D-PKBα (U/mg), determined, relative to a control incubation in which GST-PIF was omitted (±SEM for 6 determinations, two independent experiments). The basal activity of GST-S473D-PKBα was 3.5 U/mg. In Panel B the reactions were terminated by making the solutions 1% in SDS, the samples were subjected to SDS/polyacylamide gel electrophoresis and the extent of PKBα phosphorylation was established using the phospho-specific antibody that recognises PKBα phosphorylated at Ser 473. In B the results of 2 separate experiments with different preparations of lipid are shown. Lipid 1, Buffer control; Lipid 2, PtdIns 3P; Lipid 3, n-1,2-dipalmitoyl PtdIns(3,4)P2; Lipid 4, PtdIns(3,5)P2; Lipid 5, PtdIns(4,5)P2; Lipid 6, sn-1,2-dipalmitoyl D-PtdIns(3,4,5)P3; Lipid 7, rac-1,2-dilinoleoyl phosphatidyl D/L-myo-inositol 3,4,5trisphosphate; Lipid 8, sn-1-stearoyl, 2-arachidonoyl D-PtdIns(3,4,5,)P3; Lipid 9, sn-1-stearoyl, 2-arachidonoyl L-PtdIns(3,4,5,)P3; Lipid 10, sn-2-stearoyl, 3-arachidonoyl D-PtdIns(3,4,5,)P3; Lipid 11, sn-2-ste aroyl, 3-arachidonoyl L-PtdIns(3,4,5,)P3.
Phosphorylation of GST-PKBα by incubation with GST-PIF. In experiments in which the phosphorylation of PKBα was determined using the phospho-specific Ser473 PKBα antibodies, the incubations were identical to the Stage 1 described above except that the reactions were terminated by the addition of 1% (by mass) SDS and immunoblotting is carried out as described below. In experiments in which the sites of phosphorylation on PKBα are determined the incubations were identical to the Stage 1 described above except [γ^32P] ATP (1000-2000 cpm/pmol) was used instead of unlabelled ATP. […]

PDK1 = test: Activation of GST-ΔPH-PKBα by PDK1 with or without PIF and phosphoinositide; assay type: biochemical; conditions: for rate at which GST-PIF/PDK1 complex activates GST-ΔPH-PKBα, presence versus absence of lipid: GST-PIF/PDK1 complex purified from 293 cells
Description: FIG. 8. Maximal activation of PKB by PDK1/PIF requires PtdIns(3,4,5)P3 to interact with both PKB and PDK1. […] The basal activity of GST-ΔPH-PKBα was 3.0 U/mg.
Measurement of PKBα activation after incubation with GST-PIF. This assay was carried out in 2 stages, as described previously; briefly, in the first, GST-PKBα was incubated with GST-PIF (or other indicated PDK1 proteins in the presence or absence of peptides) in the presence of MgATP and phospholipid vesicles.
In Stage 1, an 15 μl reaction mixture was set up containing 66.5 mM Tris/HCl pH 7.5, 0.13 mM EGTA, 0.13% (by vol) 2-mercaptoethanol, 3.3 μM PKI, 1.3 μM microcystin-LR, 13.3 mM Mg(Ac)2, 133 μM unlabelled ATP, 0.4 μM GST-PKBA, 133 μM PtdSer, 133 μM PtdCho in the presence or absence of 13.3 μM PtdIns(3,4,5)P3. The assay was initiated by the addition of 5 μl of 0.2 mg/ml GST-PIF (or other indicated proteins or peptides), after incubation for 30 min at 30° C., stage 2 of the assay was initiated by the addition of 30 μl of a mixture made up of Buffer B containing 2.5 μM PKI, 1 μM microcystin-LR, 10 mM Mg(Ac)2, 100 μM [γ^32P]ATP (200-400 cpm/pmol), 100 μM of the peptide RPRTAAF (SEQ ID NO:13) and 1.25% (by vol) Triton X-100. After 10 min at 30° C., the reactions were terminated by spotting the reaction mixture on to P81 phosphocellulose paper. The papers were washed in 75 mM phosphoric acid and analysed as described previously. A control reaction in which GST-PKBα was omitted was taken as the blank and was always less than 5% of the activity measured in the presence of GST-PKBα. The basal GST-PKBα activity is the activity measured in the absence of PDK1. 1 Unit of GST-PKBα activity was that amount of enzyme required to catalyse the phosphorylation of 1 nmol of the peptide RPRTAAF (SEQ ID NO:13) in 1 min. The assays were linear with time up to a final concentration of 3 U/ml of PDK1 activity in the assay.

Row | Compound | phosphorylation of GST-PKBα at Ser473 (GST-PIF/PDK1 complex) | rate at which GST-PIF/PDK1 complex activates GST-ΔPH-PKBα, presence versus absence of lipid (PDK1) | further results
1 | CCCCC/C=C\C/C=C\CCCCCCCC(=O)OCC(COP(=O)(O)OC1C(O)C(OP(=O)(O)O)C(OP(=O)(O)O)C(OP(=O)(O)O)C1O)OC(=O)CCCCCCC/C=C\C/C=C\CCCCC (racemic) [Lipid 7, rac-1,2-dilinoleoyl phosphatidyl D/L-myo-inositol 3,4,5-trisphosphate] | may also be effective | – | –
2 | CCCCCCCCCCCCCCCC(=O)OCC(COP(=O)(O)OC1C(O)C(O)C(OP(=O)(O)O)C(OP(=O)(O)O)C1O)OC(=O)CCCCCCCCCCCCCCC (stereo not drawn) [Lipid 3, sn-1,2-dipalmitoyl PtdIns(3,4)P2] | may also be effective | ~4 fold | phosphorylation of GST-PKBα at Ser473 (GST-PIF/PDK1 complex; listed as PtdIns(3,4)P2): strongly phosphorylated
3 | CCCCCCCCCCCCCCCC(=O)OC[C@H](COP(=O)(O)OC1[C@H](O)[C@H](OP(=O)(O)O)C(OP(=O)(O)O)[C@H](OP(=O)(O)O)[C@H]1O)OC(=O)CCCCCCCCCCCCCCC (stereo partly drawn) [Lipid 6, sn-1,2-dipalmitoyl D-PtdIns(3,4,5)P3] | may also be effective | – | –
4 | CCCCC/C=C\C/C=C\C/C=C\C/C=C\CCCC(=O)O[C@H](COC(=O)CCCCCCCCCCCCCCCCC)COP(=O)(O)O[C@H]1[C@@H](O)[C@H](OP(=O)(O)O)[C@@H](OP(=O)(O)O)[C@H](OP(=O)(O)O)[C@H]1O [Lipid 8, sn-1-stearoyl, 2-arachidonoyl D-PtdIns(3,4,5,)P3] | highly effective; also recorded: may be capable of enhancing | ~4 fold | phosphorylation of GST-PKBα at Ser473 (GST-PIF/PDK1 complex; listed as PtdIns(3,4,5)P3): strongly phosphorylated; enhancement of the rate at which PDK1 complexed to PIF activates GST-ΔPH-PKBα (PDK1; His-PDK1/GST-PIF*, presence versus absence of lipid): 3 to 4 fold; rate at which His-PDK1 activates GST-ΔPH-PKBα, presence versus absence of lipid (PDK1; His-PDK1 alone, no PIF): the same
5 | CCCCC/C=C\C/C=C\C/C=C\C/C=C\CCCC(=O)O[C@H](COC(=O)CCCCCCCCCCCCCCCCC)COP(=O)(O)OC1[C@@H](O)[C@H](OP(=O)(O)O)C(OP(=O)(O)O)[C@H](OP(=O)(O)O)[C@H]1O (stereo partly drawn) [Lipid 9, sn-1-stearoyl, 2-arachidonoyl L-PtdIns(3,4,5,)P3] | failed to induce a significant phosphorylation; also recorded: may not induce | – | –
6 | CCCCC/C=C\C/C=C\C/C=C\C/C=C\CCCC(=O)OC[C@@H](COP(=O)(O)O[C@H]1[C@@H](O)[C@H](OP(=O)(O)O)[C@@H](OP(=O)(O)O)[C@H](OP(=O)(O)O)[C@H]1O)OC(=O)CCCCCCCCCCCCCCCCC [Lipid 10, sn-2-stearoyl, 3-arachidonoyl D-PtdIns(3,4,5,)P3] | highly effective; also recorded: may be capable of enhancing | – | –
7 | PtdIns(3,5)P2 [Lipid 4] | did not induce | – | –
8 | PtdIns(4,5)P2 [Lipid 5] | did not induce | do not increase | –
9 | PtdIns-3P [Lipid 2] | did not induce | do not increase | –
10 | sn-2-ste aroyl, 3-arachidonoyl L-PtdIns(3,4,5,)P3 [Lipid 11] | failed to induce a significant phosphorylation; also recorded: may not induce | – | –
